Reference: ChEMBL document CHEMBL1152560, “Substituted 2-arylbenzothiazoles as kinase inhibitors: hit-to-lead optimization” (Bioorg Med Chem, 2009)

Legend:
[1] = target: Tyrosine-protein kinase BTK (Homo sapiens) (UniProt Q06187); test: Residual activity of BTK at 10 uM by microplate scintillation counting
[2] = target: Serine/threonine-protein kinase PAK 5 (Homo sapiens) (UniProt Q9P286); test: Residual activity of PAK7 at 10 uM by microplate scintillation counting
[3] = target: T1, Interleukin-1 receptor-associated kinase 4 (Homo sapiens) (UniProt Q9NWZ3); test: Residual activity of IRAK4 at 0.1 uM by microplate scintillation counting
T1 sequence (whole entry): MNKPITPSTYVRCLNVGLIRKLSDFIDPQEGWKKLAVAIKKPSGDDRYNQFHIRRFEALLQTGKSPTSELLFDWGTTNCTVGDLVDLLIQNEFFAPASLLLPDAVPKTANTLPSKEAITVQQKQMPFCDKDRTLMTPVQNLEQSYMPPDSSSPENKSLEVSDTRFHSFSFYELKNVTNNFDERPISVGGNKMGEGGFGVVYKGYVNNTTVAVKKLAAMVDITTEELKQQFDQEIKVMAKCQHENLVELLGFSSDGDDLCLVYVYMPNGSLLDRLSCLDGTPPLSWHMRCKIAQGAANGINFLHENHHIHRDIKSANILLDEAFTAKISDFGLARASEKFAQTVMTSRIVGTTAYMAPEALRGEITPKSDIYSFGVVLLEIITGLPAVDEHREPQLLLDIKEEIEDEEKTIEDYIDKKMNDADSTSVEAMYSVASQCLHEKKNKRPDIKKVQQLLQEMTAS

[4] = target: Platelet-derived growth factor receptor beta (Homo sapiens, UniProt P09619); test: Residual activity of PDGFRbeta at 10 uM by microplate scintillation counting
[5] = target: Serine/threonine-protein kinase 16 (Homo sapiens) (UniProt O75716); test: Residual activity of TSF1 at 1 uM by microplate scintillation counting
[6] = target: Tyrosine-protein kinase CSK (Homo sapiens) (UniProt P41240); test: Residual activity of CSK at 1 uM by microplate scintillation counting
[7] = target: Hepatocyte growth factor receptor (Homo sapiens) (UniProt P08581); test: Residual activity of MET at 0.1 uM by microplate scintillation counting
[8] = target: Mitogen-activated protein kinase kinase kinase 8 (Homo sapiens) (UniProt P41279); test: Residual activity of COT at 1 uM by microplate scintillation counting
[9] = target: Non-receptor tyrosine-protein kinase TYK2 (Homo sapiens) (UniProt P29597); test: Residual activity of TYK2 at 1 uM by microplate scintillation counting
[10] = target: Calcium/calmodulin-dependent protein kinase type II subunit beta (Homo sapiens) (UniProt Q13554); test: Residual activity of CAMK2B at 1 uM by microplate scintillation counting
[11] = target: Mast/stem cell growth factor receptor Kit (Homo sapiens) (UniProt P10721); test: Residual activity of wild type KIT at 1 uM by microplate scintillation counting
[12] = target: T2, Protein kinase C zeta type (Homo sapiens) (UniProt Q05513); test: Residual activity of PKCzeta at 10 uM by microplate scintillation counting
T2 sequence (whole entry): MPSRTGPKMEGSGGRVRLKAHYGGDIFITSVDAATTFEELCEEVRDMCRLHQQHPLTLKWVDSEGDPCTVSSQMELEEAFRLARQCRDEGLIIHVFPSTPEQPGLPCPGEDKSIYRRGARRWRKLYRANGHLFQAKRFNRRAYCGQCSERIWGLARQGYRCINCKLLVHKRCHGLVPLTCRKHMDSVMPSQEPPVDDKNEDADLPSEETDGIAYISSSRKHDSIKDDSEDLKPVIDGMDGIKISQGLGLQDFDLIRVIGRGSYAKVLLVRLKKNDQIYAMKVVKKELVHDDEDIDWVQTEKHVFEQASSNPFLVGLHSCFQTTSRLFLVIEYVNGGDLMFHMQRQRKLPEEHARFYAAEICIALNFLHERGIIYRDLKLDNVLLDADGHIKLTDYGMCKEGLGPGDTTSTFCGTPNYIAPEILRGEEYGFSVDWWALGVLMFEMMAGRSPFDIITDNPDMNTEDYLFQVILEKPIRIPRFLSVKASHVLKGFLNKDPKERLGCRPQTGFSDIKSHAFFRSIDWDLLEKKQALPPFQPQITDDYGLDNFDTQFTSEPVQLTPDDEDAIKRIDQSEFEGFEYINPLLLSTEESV

[13] = target: T3, Serine/threonine-protein kinase D3 (Homo sapiens) (UniProt O94806); test: Residual activity of PKCnu at 0.1 uM by microplate scintillation counting
T3 sequence (whole entry): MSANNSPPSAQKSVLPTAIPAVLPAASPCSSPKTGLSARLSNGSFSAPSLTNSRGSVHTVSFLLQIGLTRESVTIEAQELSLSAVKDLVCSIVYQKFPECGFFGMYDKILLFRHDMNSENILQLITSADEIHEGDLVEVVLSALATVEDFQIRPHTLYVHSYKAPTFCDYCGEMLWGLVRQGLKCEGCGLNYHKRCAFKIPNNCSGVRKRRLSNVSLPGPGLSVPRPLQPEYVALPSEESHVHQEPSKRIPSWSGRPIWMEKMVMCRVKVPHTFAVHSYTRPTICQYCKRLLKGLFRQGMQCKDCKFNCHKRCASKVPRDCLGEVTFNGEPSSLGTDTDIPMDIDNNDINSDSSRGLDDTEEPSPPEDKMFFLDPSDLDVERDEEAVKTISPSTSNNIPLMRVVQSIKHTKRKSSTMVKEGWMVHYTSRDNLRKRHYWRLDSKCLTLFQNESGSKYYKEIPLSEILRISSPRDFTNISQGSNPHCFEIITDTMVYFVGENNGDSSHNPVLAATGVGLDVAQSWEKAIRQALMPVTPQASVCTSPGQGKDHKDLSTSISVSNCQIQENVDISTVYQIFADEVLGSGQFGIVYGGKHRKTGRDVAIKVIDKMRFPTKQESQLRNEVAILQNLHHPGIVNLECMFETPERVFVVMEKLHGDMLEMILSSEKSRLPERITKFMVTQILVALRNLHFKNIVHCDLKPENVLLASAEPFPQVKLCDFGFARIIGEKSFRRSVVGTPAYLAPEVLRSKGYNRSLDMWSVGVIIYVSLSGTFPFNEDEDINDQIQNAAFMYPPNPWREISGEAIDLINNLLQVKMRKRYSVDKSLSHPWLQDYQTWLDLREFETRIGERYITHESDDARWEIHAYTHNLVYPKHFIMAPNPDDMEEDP

[14] = target: Glycogen synthase kinase-3 alpha (Homo sapiens) (UniProt P49840); test: Residual activity of GSK3alpha at 0.1 uM by microplate scintillation counting
Sequence of Glycogen synthase kinase-3 alpha (Homo sapiens) (P49840 2-483 limits assumed): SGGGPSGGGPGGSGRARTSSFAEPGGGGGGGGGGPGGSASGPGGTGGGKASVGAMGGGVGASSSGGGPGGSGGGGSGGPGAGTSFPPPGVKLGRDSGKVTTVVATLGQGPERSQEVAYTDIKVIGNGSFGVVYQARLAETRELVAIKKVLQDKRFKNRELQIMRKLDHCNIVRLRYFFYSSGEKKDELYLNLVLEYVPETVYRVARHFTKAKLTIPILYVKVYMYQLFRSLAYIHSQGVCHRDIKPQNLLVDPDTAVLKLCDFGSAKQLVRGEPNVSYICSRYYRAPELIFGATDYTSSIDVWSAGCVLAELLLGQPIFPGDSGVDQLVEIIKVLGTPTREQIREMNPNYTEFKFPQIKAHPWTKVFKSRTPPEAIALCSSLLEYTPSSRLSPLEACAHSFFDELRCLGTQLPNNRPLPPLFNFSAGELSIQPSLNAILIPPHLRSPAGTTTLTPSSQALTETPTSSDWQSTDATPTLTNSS

Sequence of Serine/threonine-protein kinase 16 (Homo sapiens) (O75716 whole entry): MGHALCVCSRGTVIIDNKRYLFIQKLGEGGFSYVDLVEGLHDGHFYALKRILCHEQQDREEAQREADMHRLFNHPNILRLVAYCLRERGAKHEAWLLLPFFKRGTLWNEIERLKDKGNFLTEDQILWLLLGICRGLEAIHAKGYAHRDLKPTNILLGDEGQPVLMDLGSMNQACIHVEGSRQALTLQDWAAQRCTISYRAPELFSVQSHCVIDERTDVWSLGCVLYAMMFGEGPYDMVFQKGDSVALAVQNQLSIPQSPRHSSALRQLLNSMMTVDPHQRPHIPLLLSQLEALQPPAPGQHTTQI
Sequence of Serine/threonine-protein kinase PAK 5 (Homo sapiens) (Q9P286 whole entry, looked up): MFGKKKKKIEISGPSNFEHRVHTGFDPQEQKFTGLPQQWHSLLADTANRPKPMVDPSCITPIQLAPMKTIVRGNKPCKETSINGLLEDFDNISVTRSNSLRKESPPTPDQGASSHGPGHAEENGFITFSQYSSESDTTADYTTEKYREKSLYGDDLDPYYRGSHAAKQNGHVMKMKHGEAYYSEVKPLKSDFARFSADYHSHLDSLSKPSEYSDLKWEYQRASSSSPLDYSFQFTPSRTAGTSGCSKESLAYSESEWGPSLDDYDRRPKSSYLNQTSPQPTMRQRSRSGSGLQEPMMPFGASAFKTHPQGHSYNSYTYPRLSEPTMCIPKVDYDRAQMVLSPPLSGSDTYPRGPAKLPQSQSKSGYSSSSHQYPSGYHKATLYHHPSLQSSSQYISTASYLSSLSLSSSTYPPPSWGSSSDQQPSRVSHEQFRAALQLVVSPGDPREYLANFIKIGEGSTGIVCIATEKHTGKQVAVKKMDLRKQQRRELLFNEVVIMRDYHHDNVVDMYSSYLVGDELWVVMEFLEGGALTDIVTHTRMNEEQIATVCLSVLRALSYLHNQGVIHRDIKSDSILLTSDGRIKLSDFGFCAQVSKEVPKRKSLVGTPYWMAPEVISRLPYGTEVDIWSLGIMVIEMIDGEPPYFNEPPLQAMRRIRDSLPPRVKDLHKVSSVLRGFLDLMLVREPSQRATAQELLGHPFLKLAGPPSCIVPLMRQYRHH
Sequence of Mitogen-activated protein kinase kinase kinase 8 (Homo sapiens) (P41279 whole entry): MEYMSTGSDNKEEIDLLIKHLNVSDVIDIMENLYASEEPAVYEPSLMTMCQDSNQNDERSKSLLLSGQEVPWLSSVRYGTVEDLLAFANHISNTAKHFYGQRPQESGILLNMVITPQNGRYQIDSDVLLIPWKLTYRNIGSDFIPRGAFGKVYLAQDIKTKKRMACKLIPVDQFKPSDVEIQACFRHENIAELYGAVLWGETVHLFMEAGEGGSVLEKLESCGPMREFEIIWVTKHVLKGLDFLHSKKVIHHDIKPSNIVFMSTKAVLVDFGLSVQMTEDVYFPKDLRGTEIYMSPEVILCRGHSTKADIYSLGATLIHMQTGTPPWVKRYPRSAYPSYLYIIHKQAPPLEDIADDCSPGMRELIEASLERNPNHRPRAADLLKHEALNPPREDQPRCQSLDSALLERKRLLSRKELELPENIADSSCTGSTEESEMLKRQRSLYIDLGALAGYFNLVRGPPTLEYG
Sequence of Calcium/calmodulin-dependent protein kinase type II subunit beta (Homo sapiens) (Q13554 whole entry): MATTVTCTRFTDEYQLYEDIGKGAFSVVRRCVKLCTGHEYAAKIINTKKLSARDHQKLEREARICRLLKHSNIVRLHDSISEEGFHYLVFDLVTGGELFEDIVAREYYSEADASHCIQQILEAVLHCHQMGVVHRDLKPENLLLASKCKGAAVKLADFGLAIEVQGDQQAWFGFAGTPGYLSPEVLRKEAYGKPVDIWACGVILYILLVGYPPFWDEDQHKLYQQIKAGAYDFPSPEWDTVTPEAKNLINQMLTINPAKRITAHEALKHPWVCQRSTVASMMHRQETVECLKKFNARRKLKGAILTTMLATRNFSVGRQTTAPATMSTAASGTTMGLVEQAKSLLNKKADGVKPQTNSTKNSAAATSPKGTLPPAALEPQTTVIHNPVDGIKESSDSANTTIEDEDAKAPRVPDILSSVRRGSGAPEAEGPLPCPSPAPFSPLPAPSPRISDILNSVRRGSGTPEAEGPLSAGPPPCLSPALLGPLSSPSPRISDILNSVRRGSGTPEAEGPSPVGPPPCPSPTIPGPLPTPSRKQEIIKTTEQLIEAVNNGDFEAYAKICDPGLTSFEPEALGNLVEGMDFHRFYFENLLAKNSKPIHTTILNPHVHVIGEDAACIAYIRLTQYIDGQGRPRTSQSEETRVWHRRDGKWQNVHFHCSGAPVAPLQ
Sequence of Tyrosine-protein kinase CSK (Homo sapiens) (P41240 2-450 limits assumed): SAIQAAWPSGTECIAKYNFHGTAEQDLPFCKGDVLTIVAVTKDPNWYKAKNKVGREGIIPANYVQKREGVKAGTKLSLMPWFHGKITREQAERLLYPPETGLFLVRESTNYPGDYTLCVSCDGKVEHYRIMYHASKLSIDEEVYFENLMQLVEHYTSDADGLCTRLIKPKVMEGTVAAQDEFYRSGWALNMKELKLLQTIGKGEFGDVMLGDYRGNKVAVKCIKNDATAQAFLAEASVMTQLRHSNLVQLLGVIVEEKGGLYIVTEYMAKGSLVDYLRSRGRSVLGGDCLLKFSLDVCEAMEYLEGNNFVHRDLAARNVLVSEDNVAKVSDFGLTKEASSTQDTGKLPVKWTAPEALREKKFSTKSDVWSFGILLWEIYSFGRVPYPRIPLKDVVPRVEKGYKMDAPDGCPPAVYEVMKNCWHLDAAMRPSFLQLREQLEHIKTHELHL
Sequence of Non-receptor tyrosine-protein kinase TYK2 (Homo sapiens) (P29597 whole entry): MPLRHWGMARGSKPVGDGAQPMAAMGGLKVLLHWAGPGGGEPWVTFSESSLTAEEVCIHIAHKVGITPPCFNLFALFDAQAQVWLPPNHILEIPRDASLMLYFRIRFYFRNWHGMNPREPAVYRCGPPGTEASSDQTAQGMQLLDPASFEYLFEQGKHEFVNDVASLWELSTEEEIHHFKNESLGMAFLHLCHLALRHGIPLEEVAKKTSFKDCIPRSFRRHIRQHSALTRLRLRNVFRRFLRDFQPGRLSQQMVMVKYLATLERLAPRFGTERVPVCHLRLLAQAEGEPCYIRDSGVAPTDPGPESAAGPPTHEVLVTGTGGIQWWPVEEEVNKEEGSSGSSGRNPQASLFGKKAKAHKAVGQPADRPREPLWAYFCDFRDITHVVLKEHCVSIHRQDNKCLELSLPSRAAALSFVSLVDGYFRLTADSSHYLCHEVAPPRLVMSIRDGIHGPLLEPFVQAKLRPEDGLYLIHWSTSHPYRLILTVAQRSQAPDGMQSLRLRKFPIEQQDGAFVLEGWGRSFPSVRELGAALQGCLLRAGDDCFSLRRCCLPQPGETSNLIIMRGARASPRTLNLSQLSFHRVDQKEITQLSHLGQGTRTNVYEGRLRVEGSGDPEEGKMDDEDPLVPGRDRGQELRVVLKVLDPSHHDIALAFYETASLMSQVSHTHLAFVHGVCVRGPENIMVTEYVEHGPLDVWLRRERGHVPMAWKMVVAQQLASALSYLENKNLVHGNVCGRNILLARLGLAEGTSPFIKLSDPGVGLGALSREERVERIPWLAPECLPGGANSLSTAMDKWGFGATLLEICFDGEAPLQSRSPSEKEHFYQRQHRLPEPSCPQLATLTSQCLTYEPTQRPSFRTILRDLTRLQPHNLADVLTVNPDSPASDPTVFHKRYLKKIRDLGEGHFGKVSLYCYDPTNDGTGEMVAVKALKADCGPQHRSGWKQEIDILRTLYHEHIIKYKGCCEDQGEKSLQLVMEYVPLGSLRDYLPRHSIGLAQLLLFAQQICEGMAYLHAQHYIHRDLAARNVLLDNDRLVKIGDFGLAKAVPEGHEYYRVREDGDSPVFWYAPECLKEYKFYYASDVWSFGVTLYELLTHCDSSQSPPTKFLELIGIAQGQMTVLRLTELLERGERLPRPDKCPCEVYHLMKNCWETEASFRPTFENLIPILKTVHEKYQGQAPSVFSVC
Sequence of Tyrosine-protein kinase BTK (Homo sapiens) (Q06187 whole entry): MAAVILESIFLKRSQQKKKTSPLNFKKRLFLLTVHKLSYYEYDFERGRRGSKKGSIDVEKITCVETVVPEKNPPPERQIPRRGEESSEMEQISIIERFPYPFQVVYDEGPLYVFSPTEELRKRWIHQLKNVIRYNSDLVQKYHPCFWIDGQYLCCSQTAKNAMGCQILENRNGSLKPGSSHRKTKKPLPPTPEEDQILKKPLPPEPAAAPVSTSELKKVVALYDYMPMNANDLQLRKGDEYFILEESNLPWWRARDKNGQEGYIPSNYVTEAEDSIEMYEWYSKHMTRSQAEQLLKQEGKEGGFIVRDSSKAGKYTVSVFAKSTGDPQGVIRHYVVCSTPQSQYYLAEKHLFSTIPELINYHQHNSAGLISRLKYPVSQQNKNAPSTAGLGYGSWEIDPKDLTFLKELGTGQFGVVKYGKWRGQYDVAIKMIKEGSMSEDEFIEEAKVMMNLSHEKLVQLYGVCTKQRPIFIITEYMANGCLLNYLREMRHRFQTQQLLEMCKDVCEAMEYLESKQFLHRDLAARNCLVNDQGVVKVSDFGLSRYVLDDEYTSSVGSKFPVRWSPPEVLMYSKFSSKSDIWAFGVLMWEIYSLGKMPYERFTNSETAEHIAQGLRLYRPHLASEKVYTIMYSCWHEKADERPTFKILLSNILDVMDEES

SMILES | residual activity [1] [%] | residual activity [2] [%] | residual activity [3] [%] | residual activity [4] [%] | residual activity [5] [%] | residual activity [6] [%] | residual activity [7] [%] | residual activity [8] [%] | residual activity [9] [%] | residual activity [10] [%] | residual activity [11] [%] | residual activity [12] [%] | residual activity [13] [%] | residual activity [14] [%]
COc1cc2c(Oc3ccc(-c4nc5ccccc5s4)cc3F)ncnc2cc1OCCCN1CCN(C)CC1 | 6 | 49 | 101 | 33 | 96 | 76 | 81 | 77 | 92 | 82 | 128 | 74 | 102 | 104
COc1cc2c(Oc3ccc(-c4nc5ccccc5s4)cc3)ncnc2cc1OCCCN1CCCC1 | 53 | 84 | 96 | 43 | 87 | 97 | 106 | 73 | 90 | 70 | 129 | 64 | 93 | 95
COc1cc2c(Oc3ccc(-c4nc5ccccc5s4)cc3)ncnc2cc1OCCCN1CCN(C)CC1 | 40 | 45 | 100 | 21 | 90 | 82 | 83 | -18 | 93 | 103 | 124 | 72 | 86 | 103
